pKi: −log10 of the molar value. Values joined by “and” are separate entries in the source; they are usually repeats but may differ in a detail not shown here. Identical values can stand only once. Where a SMILES comes first, the peptide text is derived from it. [ ]: non-standard residue; d: D form. GABA = NCCCC(=O)O
molecular target: Angiotensin-converting enzyme 2 (Bos taurus, UniProt Q58DD0)
Sequence (Q58DD0 whole entry): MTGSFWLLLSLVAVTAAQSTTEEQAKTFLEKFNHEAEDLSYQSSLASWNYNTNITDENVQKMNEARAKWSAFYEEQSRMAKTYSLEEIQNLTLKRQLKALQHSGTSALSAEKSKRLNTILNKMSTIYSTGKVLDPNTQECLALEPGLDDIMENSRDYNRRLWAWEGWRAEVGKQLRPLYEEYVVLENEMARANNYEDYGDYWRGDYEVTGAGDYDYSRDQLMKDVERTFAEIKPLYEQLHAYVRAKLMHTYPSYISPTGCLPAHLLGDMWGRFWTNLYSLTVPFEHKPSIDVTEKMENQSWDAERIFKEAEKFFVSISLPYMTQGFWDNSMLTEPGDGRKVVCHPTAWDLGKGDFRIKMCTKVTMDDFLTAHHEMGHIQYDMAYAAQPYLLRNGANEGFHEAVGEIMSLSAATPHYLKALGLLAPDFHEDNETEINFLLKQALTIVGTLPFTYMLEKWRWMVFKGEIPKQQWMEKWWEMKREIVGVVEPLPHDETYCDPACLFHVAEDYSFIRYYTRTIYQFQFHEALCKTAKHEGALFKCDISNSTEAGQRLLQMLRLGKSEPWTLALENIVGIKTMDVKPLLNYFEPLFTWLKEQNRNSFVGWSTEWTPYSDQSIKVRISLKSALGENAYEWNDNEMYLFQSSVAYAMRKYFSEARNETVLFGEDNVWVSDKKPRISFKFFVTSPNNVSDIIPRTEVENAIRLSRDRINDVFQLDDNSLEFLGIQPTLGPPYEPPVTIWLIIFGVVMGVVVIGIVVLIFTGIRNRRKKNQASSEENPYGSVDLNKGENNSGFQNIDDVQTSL

Row | pKi | Compound
1 | < 5.00 | Cc1cc(Cn2cnc3c2C[C@@H](C(=O)O)N(C(=O)C(c2ccccc2)c2ccccc2)C3)ccc1N
2 | 8.26 and 8.45 | CC[C@H](C)[C@H](NC(=O)[C@H](Cc1ccc(O)cc1)NC(=O)[C@@H](N)C(C)C)C(=O)N[C@@H](Cc1cnc[nH]1)C(=O)N1CCC[C@H]1C(=O)N[C@@H](Cc1ccccc1)C(=O)O
3 | 6.00 | CCC(C)[C@H](NC(=O)[C@@H]1CCCN1C(=O)[C@H](Cc1cnc[nH]1)NC(=O)[C@@H](NC(=O)[C@H](Cc1ccc(O)cc1)NC(=O)[C@@H](NC(=O)[C@H](CCCN=C(N)N)NC(=O)CNC)C(C)C)[C@@H](C)CC)C(=O)O (stereo partly specified) [Ang II Ile8, Sar1]
4 | 6.00 | CC[C@H](C)[C@H](NC(=O)[C@H](Cc1ccc(O)cc1)NC(=O)[C@@H](NC(=O)[C@H](CCCN=C(N)N)NC(=O)CNC)C(C)C)C(=O)N[C@@H](Cc1cnc[nH]1)C(=O)N1CCC[C@H]1C(=O)N[C@H](C(=O)O)C(C)O (stereo partly specified) [Ang II Thr8, Sar1]
5 | 6.00 | CC[C@H](C)[C@H](NC(=O)[C@H](Cc1ccc(O)cc1)NC(=O)[C@H](N)C(C)C)C(=O)N[C@@H](Cc1cnc[nH]1)C(=O)N1CCC[C@H]1C(=O)N[C@@H](Cc1ccccc1)C(=O)O [Ang IV D-Val1]
6 | 8.07 and 8.49 | CC[C@H](C)[C@H](NC(=O)[C@H](Cc1ccc(O)cc1)NC(=O)CCCN)C(=O)N[C@@H](Cc1cnc[nH]1)C(=O)N1CCC[C@H]1C(=O)N[C@@H](Cc1ccccc1)C(=O)O [Ang IV Nor1] (H-[GABA]YIHPF-OH)
7 | 6.00 | CC[C@H](C)[C@H](NC(=O)[C@H](Cc1ccc(O)cc1)NC(=O)[C@@H](NC(=O)[C@H](CCCNC(=N)N)NC(=O)[C@@H](N)CC(=O)O)C(C)C)C(=O)N[C@@H](Cc1cnc[nH]1)C(=O)N[C@H](C)C(=O)O [Ang(1-7) D-Ala7] (H-DRVYIH[dA]-OH)
8 | 7.47 | CC[C@H](C)[C@H](NC(=O)[C@H](Cc1ccc(O)cc1)NC(=O)[C@@H](NC(=O)[C@@H](N)CCCN=C(N)N)C(C)C)C(=O)N[C@@H](Cc1cnc[nH]1)C(=O)N1CCC[C@H]1C(=O)O [Ang(2-7)]
9 | 6.00 | CC(C)[C@H](N)C(=O)N[C@@H](Cc1ccc(O)cc1)C(=O)O [Ang(3-4)] (H-Val-Tyr-OH)
10 | 8.00 | CC[C@H](C)[C@H](NC(=O)[C@H](Cc1ccc(O)cc1)NC(=O)[C@@H](N)C(C)C)C(=O)O [Ang(3-5)] (H-Val-Tyr-Ile-OH)
11 | 7.84 | CC[C@H](C)[C@H](NC(=O)[C@H](Cc1ccc(O)cc1)NC(=O)[C@@H](N)C(C)C)C(=O)N[C@@H](Cc1cnc[nH]1)C(=O)O [Ang(3-6)] (H-VYIH-OH)
12 | 7.98 | CC[C@H](C)[C@H](NC(=O)[C@H](Cc1ccc(O)cc1)NC(=O)[C@@H](N)C(C)C)C(=O)N[C@@H](Cc1cnc[nH]1)C(=O)N1CCC[C@H]1C(=O)O [Ang(3-7)] (H-VYIHP-OH)
13 | 8.14 | CC[C@H](C)[C@H](NC(=O)[C@H](Cc1ccc(O)cc1)NC(=O)[C@@H](N)C(C)C)C(=O)N[C@@H](Cc1c[nH]cn1)C(=O)N1CCC[C@H]1C(=O)N[C@@H](Cc1ccccc1)C(=O)N[C@@H](Cc1c[nH]cn1)C(=O)O [Ang(3-9)] (H-VYIHPFH-OH)
14 | 7.73 | CC[C@H](C)[C@H](NC(=O)[C@H](Cc1ccc(O)cc1)NC(=O)[C@@H](N)C(C)C)C(=O)N[C@@H](Cc1c[nH]cn1)C(=O)N1CCC[C@H]1C(=O)N[C@@H](Cc1ccccc1)C(=O)N[C@@H](Cc1c[nH]cn1)C(=O)N[C@@H](CC(C)C)C(=O)O [Ang(3-10)] (H-VYIHPFHL-OH)
15 | 6.93 | CC[C@H](C)[C@H](NC(=O)[C@H](Cc1ccc(O)cc1)NC(=O)[C@@H](N)C(C)C)C(=O)N[C@@H](Cc1cnc[nH]1)C(=O)N1CCC[C@H]1C(=O)N[C@@H](Cc1ccccc1)C(=O)N[C@@H](Cc1cnc[nH]1)C(=O)N[C@@H](CC(C)C)C(=O)N[C@H](C(=O)O)C(C)C [Ang(3-11)] (H-VYIHPFHLV-OH)
16 | < 5.00 | CCCCc1nc(Cl)c(CO)n1Cc1ccc(-c2ccccc2-c2nn[nH]n2)cc1 [NSC_3961]
17 | 6.39 and 6.24 | CC[C@H](C)[C@H](NC(=O)[C@H](Cc1ccc(O)cc1)NC(=O)[C@@H](NC(=O)[C@H](CCCNC(=N)N)NC(=O)[C@@H](N)CC(=O)O)C(C)C)C(=O)N[C@@H](Cc1cnc[nH]1)C(=O)N1CCC[C@H]1C(=O)N[C@@H](Cc1ccccc1)C(=O)O [NSC_439662]
18 | 7.86 | CCCC[C@H](N)C(=O)N[C@H](Cc1ccccc1)C(=O)NCCCCCC(N)=O [NleYI-6-hexamide]

Row | Compound | pKi
19 | CC[C@H](C)[C@H](NC(=O)[C@H](Cc1ccc(O)cc1)NC(=O)[C@@H](NC(=O)[C@H](CCCNC(=N)N)NC(=O)[C@@H](N)CC(=O)O)C(C)C)C(=O)N[C@@H](Cc1c[nH]cn1)C(=O)N1CCC[C@H]1C(=O)O [Ang(1-7)] | 6.00
20 | CC[C@H](C)[C@H](NC(=O)[C@@H](N)Cc1ccc(O)cc1)C(=O)N[C@@H](Cc1cnc[nH]1)C(=O)N1CCC[C@H]1C(=O)N[C@@H](Cc1ccccc1)C(=O)O [Ang(4-8)] (H-YIHPF-OH) | 6.00
21 | CC[C@H](C)[C@H](NC(=O)[C@H](Cc1ccc(O)cc1)NC(=O)[C@@H](NC(=O)[C@@H](N)CCCN=C(N)N)C(C)C)C(=O)N[C@@H](Cc1c[nH]cn1)C(=O)N1CCC[C@H]1C(=O)N[C@@H](Cc1ccccc1)C(=O)O [CAS_12687-51-3] | 7.20 and 7.43
